Measured values reported in PubChem BioAssay (NCI).
Where “and” joins values, the source holds several entries; their conditions need not be identical. Equal values may be shown once.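 Values below derive from 48-hour exposures of cells grown in 96-well plates, with endpoints linearly interpolated between the two concentrations bracketing the appropriate inhibition level. GI50 marks 50% less growth. TGI marks complete inhibition of growth.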

How the values were obtained:
Assay in all cases: NCI anticancer screen, dose series, 48 h
[1] = test system: SK-OV-3 ovarian
[2] = test system: NCI-H23 lung
[3] = test system: IGROV1 ovarian
[4] = test system: 786-0 renal
[5] = test system: MOLT-4 leukemia
[6] = test system: NCI-H460 lung
[7] = test system: TK-10 renal
[8] = test system: SNB-75 CNS
[9] = test system: SN12C renal
[10] = test system: NCI-H226 lung

Row | SMILES | GI50 [1] | TGI [1] | GI50 [2] | TGI [2] | GI50 [3] | TGI [3] | GI50 [4] | TGI [4] | GI50 [5] | TGI [5] | GI50 [6] | TGI [6] | GI50 [7] | TGI [7] | GI50 [8] | TGI [8] | GI50 [9] | TGI [9] | GI50 [10] [nM] | TGI [10] [nM]
1 | COC(=O)c1ccc2c(c1)nc(-c1cc3ccccc3[nH]c1=O)n2-c1cc(C(C)(C)C)[nH]n1 | > 53400 nM | > 100000 nM | 2640 nM | > 100000 nM | 1230 nM | > 100000 nM | 3790 nM | > 100000 nM | 793 nM | > 100000 nM | 784 nM | > 100000 nM | 40000 nM | > 74700 nM | 5420 nM | 41500 nM | > 23700 nM | > 100000 nM | 16500 | > 100000
2 | CCOc1ccc([C@@H]2[C@@H](Oc3ccccc3)C(=O)N2c2cc(OC)c(OC)c(OC)c2)cc1 | 227 nM | > 100000 nM | 467 nM | > 100000 nM | 150 nM | > 100000 nM | 89.6 nM | > 100000 nM | 170 nM | > 100000 nM | 285 nM | > 100000 nM | 16000 nM | > 100000 nM | 37 nM | > 100000 nM | 263 nM | > 100000 nM | 1130 | > 100000
3 | CCCCCCCC/C=C/CCCCCCCCC1=NCCN1CCO | 16100 nM | 33600 nM | 10900 nM | 28300 nM | 2580 nM | 6190 nM | 5490 nM | 28000 nM | 2100 nM | 4730 nM | 1810 nM | 3320 nM | 12600 nM | 26700 nM | 2800 nM | 15300 nM | 4190 nM | 15900 nM | 9910 | 33700
4 | CCCCCCCCCCCCCCCCCC1=NCCN1CS(=O)(=O)O | 18100 nM | 39400 nM | 15400 nM | 33400 nM | 3900 nM | 14100 nM | 17700 nM | 35300 nM | 10200 nM | 38600 nM | 3240 nM | 8390 nM | 18600 nM | 35400 nM | 17200 nM | 44900 nM | 12800 nM | 28900 nM | 17400 | 40100
5 | CCC(C)n1cc(C)c2c(C(=O)NCc3c(C)cc(C)[nH]c3=O)cc(Br)cc21 (stereo unspecified) | > 100000 nM | > 100000 nM | 76300 nM | > 100000 nM | > 100000 nM | > 100000 nM | > 100000 nM | > 100000 nM | 26200 nM | 71600 nM | 40300 nM | > 100000 nM | > 100000 nM | > 100000 nM | 43500 nM | > 100000 nM | 55600 nM | > 100000 nM | 57500 | > 100000
6 | ClC1=C(Cl)C(Cl)=C(Cl)C1=C/C=C/c1ccccc1 | 2440 nM | > 27500 nM | 257 nM | 1140 nM | – | 45.5 nM | 444 nM | 2050 nM | 335 nM | – | 326 nM | 2300 nM | 562 nM | 2040 nM | 251 nM | 1850 nM | 407 nM | 2150 nM | 236 | 653
7 | CC(=O)N1CC(Nc2ccc(OC(F)(F)F)cc2)=CC1=O | 3530 nM | > 100000 nM | 4930 nM | > 100000 nM | 7810 nM | > 100000 nM | 3270 nM | > 100000 nM | 4210 nM | > 100000 nM | 696 nM | > 100000 nM | 5850 nM | > 100000 nM | 1590 nM | 7590 nM | 7950 nM | > 100000 nM | 3980 | 55900
8 | CC(C)(C)[Si](C)(C)OCC1OC(n2cnc3c(NC(=O)c4ccccc4)ncnc32)CC1O (stereo unspecified) | – | 89100 nM | – | > 100000 nM | – | 91300 nM | – | 38600 nM | – | 49900 nM | – | > 100000 nM | – | > 100000 nM | – | 60300 nM | – | > 100000 nM | – | 66500
9 | CC1/C=C/C=C/C=C/C=C/C=C/C=C/C=C/C(O[C@@H]2O[C@H](C)[C@H](O)[C@@H](O)[C@@H]2N)CC(O)C(C(=O)O)C(O)CC(=O)CC(O)CC(O)CC(O)CC(=O)CCCC(=O)CC(=O)OC1C(C)CC(C)C(O)CC(=O)c1ccc(N)cc1 (stereo partly specified) | 67.4 nM and 298 nM | 119 nM and 908 nM | 55 nM and 187 nM | 102 nM and 371 nM | 59.8 nM and 226 nM | 116 nM and 536 nM | 59.1 nM and 172 nM | 111 nM and 346 nM | 67.9 nM and 172 nM | 143 nM and 402 nM | 61.1 nM and 229 nM | 110 nM and 633 nM | 57.3 nM and 315 nM | 104 nM and 983 nM | 59.6 nM and 242 nM | 120 nM and 787 nM | 58.6 nM and 174 nM | 114 nM and 317 nM | 218 | 581
10 | CC(=O)c1c(C(F)(F)F)n([O-])c2ccc(Cl)cc2[n+]1=O | 6650 nM | 19900 nM | 1720 nM | 6640 nM | 322 nM | – | 55.1 nM | 382 nM | – | 1540 nM | 19.1 nM | 286 nM | 838 nM | 2660 nM | 1690 nM | 8380 nM | 990 nM | 2520 nM | 1400 | 3430
11 | C=C1C[C@](OC)([C@H](O)C(=O)N[C@@H](OC)[C@@H]2C[C@@H](O)C(C)(C)[C@@H](C[C@@H](COC)OC)O2)O[C@H](C)[C@@H]1C | 1.94 nM | 7.8 nM | 1.89 nM | 5.44 nM | 2.95 nM | 16.1 nM | 2.2 nM | 11.9 nM | 4.37 nM | > 1000 nM | 0.72 nM | 2.66 nM | 1.41 nM | 3.88 nM | 2.73 nM | 8.25 nM | 1.74 nM | 6.38 nM | 2.02 | 5.82
12 | Cc1ccc(NC(=O)NC(=O)c2ccc([N+](=O)[O-])cc2[N+](=O)[O-])cc1Oc1ncc(Cl)cn1 | – | 25700 nM | – | 9390 nM | – | 29700 nM | – | 13800 nM | – | 49800 nM | – | 14800 nM | – | > 100000 nM | – | 2400 nM | – | 16600 nM | – | 2530
